The values that follow come from ChEMBL document CHEMBL2074202, “Biliary excretion of pravastatin in rats: contribution of the excretion pathway mediated by canalicular multispecific organic anion transporter” (Drug Metab Dispos, 1997).

Data set [1] concerns the target ATP-binding cassette sub-family C member 2 (Rattus norvegicus, UniProt Q63120). Kind of data set: TP_TRANSPORTER: inhibition of DNP-SG uptake in bile canalicular membrane vesicles from SD rat. The data set is classed as functional, cell membranes, Sprague-Dawley, Bile canalicular membrane vesicle.
Substrate in data set [2]: CC[C@H](C)C(=O)O[C@H]1C[C@H](O)C=C2C=C[C@H](C)[C@H](CC[C@@H](O)C[C@@H](O)CC(=O)O)[C@H]21
The data set is described as follows: TP_TRANSPORTER: uptake in bile canalicular membrane vesicles from SD rat. The class given is functional, cell membranes, Sprague-Dawley, Bile canalicular membrane vesicle.

What is called Ki is the dissociation constant of the complex between target and ligand, obtained from inhibition or displacement. A high value points to a looser hold on the target. `CC[C@H](C)C(=O)O[C@H]1C[C@H](O)C=C2C=C[C@H](C)[C@H](CC[C@@H](O)C[C@@H](O)CC(=O)O)[C@H]21` [PRAVASTATIN]: the Ki in data set [1] is 172 µM.

B1: ATP-binding cassette sub-family C member 2 (Rattus norvegicus) (protein)
chain: MDKFCNSTFWDLSLLESPEADLPLCFEQTVLVWIPLGFLWLLAPWQLYSVYRSRTKRSSITKFYLAKQVFVVFLLILAAIDLSLALTEDTGQATVPPVRYTNPILYLCTWLLVLAVQHSRQWCVRKNSWFLSLFWILSVLCGVFQFQTLIRALLKDSKSNMAYSYLFFVSYGFQIVLLILTAFSGPSDSTQTPSVTASFLSSITFSWYDRTVLKGYKHPLTLEDVWDIDEGFKTRSVTSKFEAAMTKDLQKARQAFQRRLQKSQRKPEATLHGLNKKQSQSQDVLVLEEAKKKSEKTTKDYPKSWLIKSLFKTFHVVILKSFILKLIHDLLVFLNPQLLKLLIGFVKSSNSYVWFGYICAILMFAVTLIQSFCLQSYFQHCFVLGMCVRTTVMSSIYKKALTLSNLARKQYTIGETVNLMSVDSQKLMDATNYMQLVWSSVIQITLSIFFLWRELGPSILAGVGVMVLLIPVNGVLATKIRNIQVQNMKNKDKRLKIMNEILSGIKILKYFAWEPSFQEQVQGIRKKELKNLLRFGQLQSLLIFILQITPILVSVVTFSVYVLVDSANVLNAEKAFTSITLFNILRFPLSMLPMVTSSILQASVSVDRLERYLGGDDLDTSAIRRVSNFDKAVKFSEASFTWDPDLEATIQDVNLDIKPGQLVAVVGTVGSGKSSLVSAMLGEMENVHGHITIQGSTAYVPQQSWIQNGTIKDNILFGSEYNEKKYQQVLKACALLPDLEILPGGDMAEIGEKGINLSGGQKQRVSLARAAYQDADIYILDDPLSAVDAHVGKHIFNKVVGPNGLLAGKTRIFVTHGIHFLPQVDEIVVLGKGTILEKGSYRDLLDKKGVFARNWKTFMKHSGPEGEATVNNDSEAEDDDDGLIPTMEEIPEDAASLAMRRENSLRRTLSRSSRSSSRRGKSLKNSLKIKNVNVLKEKEKEVEGQKLIKKEFVETGKVKFSIYLKYLQAVGWWSILFIILFYGLNNVAFIGSNLWLSAWTSDSDNLNGTNNSSSHRDMRIGVFGALGLAQGICLLISTLWSIYACRNASKALHGQLLTNILRAPMRFFDTTPTGRIVNRFSGDISTVDDLLPQTLRSWMMCFFGIAGTLVMICMATPVFAIIIIPLSILYISVQVFYVATSRQLRRLDSVTKSPIYSHFSETVTGLPIIRAFEHQQRFLAWNEKQIDINQKCVFSWITSNRWLAIRLELVGNLVVFCSALLLVIYRKTLTGDVVGFVLSNALNITQTLNWLVRMTSEAETNIVAVERISEYINVENEAPWVTDKRPPADWPRHGEIQFNNYQVRYRPELDLVLKGITCNIKSGEKVGVVGRTGAGKSSLTNCLFRILESAGGQIIIDGIDVASIGLHDLRERLTIIPQDPILFSGSLRMNLDPFNKYSDEEVWRALELAHLRSFVSGLQLGLLSEVTEGGDNLSIGQRQLLCLGRAVLRKSKILVLDEATAAVDLETDSLIQTTIRKEFSQCTVITIAHRLHTIMDSDKIMVLDNGKIVEYGSPEELLSNRGSFYLMAKEAGIENVNHTEL
What is called Km is the substrate concentration at which the rate is half of its maximum. With B1, the Km in data set [2] turned out to be 223 µM.
